The test system of data set [1] is primary and metastatic breast cancer. Particulars: mice; cited from earlier work.
Data set [2] has as its system hematopoietic stem cells (HSCs). The conditions noted are these: potential side effect in combination with chemotherapy; cited from earlier work.
The test system of the next data set is breast cancer cells. Particulars: 12-day co-culture with MSCs, AMD3100 for the last 48 hours, compared to no treatment.
In a further data set the test system is IL-1α. Particulars: MDA-MB-231 transwell cultures, MSCs obtained from AMD3100-treated co-cultures, 48 hours.
Data set [3] has as its system MDA-MB-231. The data set is described as follows: Tumor volume of subcutaneous MDA-MB-231 (with or without MSCs) in nude BALB/c mice. The format is in vivo. As for the experimental part: To validate our in vitro studies, female nude BALB/c mice were injected subreast cancerutaneously with 10^6 matrigel-resuspended MDA-MB-231 alone or in combination with 10^6 MSCs, as per the experimental design described in FIG. 7A. Mice were divided into the following experimental groups (n=5 per group): (A) breast cancer cells injected alone; (B) breast cancer cells injected in combination with MSCs; (C) group B plus AMD3100 treatment; (D) group C plus IL-1ra co-treatment. All groups were treated with carboplatin at days 8 and 10 following initial injection of cells, and the animals euthanized at the experimental endpoint of day 12 (D12).
Female nude BALB/c mice (4 weeks) were obtained from Harlan Laboratories (Indianapolis, Ind.) and housed in a laminar flow hood at an AALAC-accredited facility. The use of mice was approved by the Institutional Animal Care and Use Committee, New Jersey Medical School (Newark, N.J.). MDA-MB-231 (10^6), alone or in combination with MSCs (10^6), in 0.1 mL and equal volume of BD Matrigel (BD Biosciences, Bedford, Mass.) were injected by subreast cancerutaneous route in the nude mice (Day 0, D0). After 4 days, the tumors were injected with AMD3100 alone or in combination with IL-1ra or vehicle (hereafter termed ‘treatment’). Mice were given a second ‘treatment’ at D8 along with a first dose of chemotherapy delivered intra-peritoneally. A second dose of chemotherapy was given at D10 and the mice euthanized at D12.
In FIG. 7, the effects of AMD3100 and carboplatin on tumor volume are represented. The method by which mice were treated is shown in (A). (B) Female BALB/c (n=5) were injected subreast cancerutaneously with matrigel and 10^6 MDA-MB-231 alone or in combination with 10^6 MSCs. The mean volumes at the first injection (day 8, D8) are normalized to 100% and the change in volumes at D10 and D12 are presented as mean±SD.

Data set [4] concerns MDA-MB-231. As for the experimental part:
The study of the molecular disruption of CXCL12-CXCR4 with a CXCR4 antagonist, AMD3100 was expanded. We first examined the effects of AMD3100 on the proliferation of MDA-MB-231 and T47D, in co-culture with MSCs (FIGS. 1D and 1E), in the presence of two different concentrations of the antagonist (10 and 100 ng/ml) for the 48-hour culture. Parallel cultures contained vehicle.
Some studies also looked at AMD3100 in long-term breast cancer cell/MSC co-cultures. In this set of studies we determined the effect of AMD3100 when breast cancer cells were cultured with MSCs for over 48 hours since this will recapitulate in situ when breast cancer cells are expected to contact MSCs for long periods. […] Control cultures contained vehicle (−) and 2-day exposure to AMD3100 (D2).
(§1) Cultures of breast cancer cells and MSCs, alone or in co-culture, from each experimental setup were assayed for cellular proliferation and viability using the CyQuant Cell Proliferation Assay Kit (Molecular Probes; Eugene, Oreg.) and CellTiter-Blue Cell Viability Assay (Promega), respectively, according to manufacturer's specific instructions.
For determination of proliferation, cells grown in 96-well plates were frozen overnight at −70° C. The next day, thawed cells were incubated in CyQuant GR dye/cell-lysis buffer for 5 minutes at room temperature, and examined using a fluorescence microplate reader at 480 nm excitation/520 nm emission. Proliferation was calculated from a standard curve of known numbers of breast cancer cells and MSCs. To accurately assess the proliferation of breast cancer cells, but not MSC proliferation in co-culture, proliferation of MSCs grown alone were subtracted from the total cellular proliferation recorded.

For data set [5], the system named is T47D. The data set is described as follows: CyQuant proliferation of T47D, alone or in co-culture with MSCs.
A further data set concerns caspase-3. Particulars: breast cancer cells isolated from co-culture, carboplatin added with AMD3100.
For data set [6], the system named is T47D. The method, then:
as §1
(§2) For assessment of viability, CellTiter-Blue reagent was added to cells grown in 96-well plates, and then incubated for 4 hours at 37° C. Following incubation, wells were read using a fluorescence microplate reader at 560 nm excitation/590 nm emission. Percent viability was calculated from a reference using untreated healthy cells, which were considered 100% viable, and cell-free wells containing reagent alone, which were considered 0% viable.
(§3) Breast cancer cells, cultured alone or with MSCs for 12 days, were treated with AMD3100, or untreated. After 48 hours, all cultures were exposed to carboplatin, with re-added AMD3100 in cultures that had initial AMD3100. After 72 hours, the viable cells were counted (A and B), and presented (C and D) as the mean±SD, n=3. Whole cell extracts from these experiments were analyzed by immunoblot for caspase-3 (E). Membranes were stripped and re-probed with β-actin for normalization. Representative blots are shown, n=3.
(§4) Breast cancer cells cultured in the presence or absence of MSCs for 12 days were treated for 48 hours with AMD3100, or untreated. Following 48 hours, treated and untreated cells were exposed to carboplatin for 72 hours to induce cell death. […] At the end of this regiment cell proliferation (A and B) and viability (C and D) were assessed. The results are presented as the mean±SD, n=3.

For data set [7], the system named is MDA-MB-231. As for the experimental part:
as §1, §2, §3, §4
The source holds these as a separate data set.

In another data set the target is CXCR7 (Homo sapiens, UniProt P25106). The conditions noted are these: cited from earlier work.
For data set [8], the system named is naïve breast cancer cells. The data set is described as follows: Transwell assay: proliferation of naïve breast cancer cells with MSCs in the inner wells. The format is cell-based, human. The conditions noted are these: inner wells: MSCs from co-cultures with AMD3100, compared to antagonist-treated MSCs alone; 48 hours.
Method: Using mechanistic studies, we next asked whether breast cancer cells proliferation by AMD3100 requires contact between MSCs and breast cancer cells. […] To address this question, we utilized a transwell assay in which “naïve” breast cancer cells, which were not previously exposed to MSCs or AMD3100, were seeded in the outer wells. MSCs from co-cultures with AMD3100 or vehicle were added to the inner wells. In parallel, only vehicle was added to the inner wells.
Breast cancer cells (5×10^4) were added to the outer well of 24-well transwell cultures, 0.4 μM insert (BD Falcon). In parallel, breast cancer cells were separated from co-cultures with MSCs by positive selection with anti-cytokeratin-conjugated; pan anti-mouse IgG Dynabeads (Invitrogen). MSCs from the negative fraction were then added to the inner wells of the transwell chamber in order to determine the effects of MSC-derived soluble factors on breast cancer cell proliferation. For neutralization of soluble IL-1α and IL-1β, anti-IL-1RI was titrated into the 24-well plates.
MSCs were co-cultured with breast cancer cells for 12 days with, or without AMD3100. The MSCs were selected and then added to the inner wells of transwell cultures. Naïve breast cancer cells were placed in the outer wells. After 48 hours, breast cancer cells were counted and the results presented as mean±SD, n=3 (A and B). […]
The test system of a further data set is IL-1β. The conditions noted are these: MDA-MB-231 transwell cultures, MSCs obtained from AMD3100-treated co-cultures, 48 hours.
The mark [9] stands for this setting: MDA-MB-231 + MSCs, AMD3100 48 hours, then carboplatin 72 hours in the absence of AMD3100 (FIG. 6).
Where [10] appears, read: T47D + MSCs, AMD3100 48 hours, then carboplatin 72 hours in the absence of AMD3100 (FIG. 6).

Entries after “also recorded” stand apart in the source; their conditions may differ.

Chain of CXCR7 (P25106 whole entry, species assumed): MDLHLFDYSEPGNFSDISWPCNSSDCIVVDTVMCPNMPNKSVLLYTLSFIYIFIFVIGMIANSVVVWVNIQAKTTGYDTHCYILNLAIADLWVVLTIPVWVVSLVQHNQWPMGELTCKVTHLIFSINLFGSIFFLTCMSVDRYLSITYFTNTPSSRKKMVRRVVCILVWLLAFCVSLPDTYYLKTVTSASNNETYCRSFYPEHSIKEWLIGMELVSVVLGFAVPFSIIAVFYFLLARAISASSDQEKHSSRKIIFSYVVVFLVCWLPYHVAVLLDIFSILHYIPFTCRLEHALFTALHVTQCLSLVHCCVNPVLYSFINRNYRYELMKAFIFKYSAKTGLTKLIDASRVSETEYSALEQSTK
Method for IL-1α: (§5) To assess the factor(s) responsible for breast cancer cell proliferation (FIGS. 4A and 4B), media from representative (MDA-MB-231) transwell cultures were analyzed with a cytokine/growth factor microarray.
(§6) Cytokine production by MSCs in the transwell assay was assessed using the Human Cytokine Antibody Array 5 (RayBiotech; Norcross, Ga.). Briefly, after 48 hours of culture, the transwell was removed and the breast cancer cell growth media collected for cytokine determination. Background levels obtained with media alone were subtracted. The densities of spots were quantitated with UN-SCAN-IT densitometry software (Silk Scientific; Orem, Utah).
Method for IL-1β: as §5, §6
Method for caspase-3: Whole cell extracts from breast cancer cells and MSCs were prepared in accordance with accepted methods and 20 μg were analyzed by western blots using 4-20% SDS-PAGE (Bio-Rad, Hercules, Calif.). The proteins were transferred onto polyvinylidene difluoride membranes (Perkin Elmer Life Sciences, Boston, Mass.). Membranes were incubated overnight with primary antibodies and then detected the following day by 2 hour incubation with HRP-conjugated IgG. All primary and secondary antibodies were used at final dilutions of 1/1000 and 1/2000, respectively. HRP was developed with chemiluminscence detection reagent (Perkin Elmer Life Sciences). The membranes were stripped with Restore Stripping Buffer (Pierce, Rockford, Ill.) for reprobing with other antibodies.

`c1cc(CN2CCCNCCNCCCNCC2)ccc1CN1CCCNCCNCCCNCC1` [AMD3100]: the “effect on primary and metastatic breast cancer” value in [1] was “can decrease primary and metastatic breast cancer in mice”. Moreover, the “overall survival for experimental lung metastases” value in [1] is listed as “no effect on the overall survival”. The “mobilization of hematopoietic stem cells” value in [2] is “can mobilize hematopoietic stem cells”. The “cycling cells (S/G2/M phase)” value in the data set on breast cancer cells was “significant (p<0.05) increase in cycling cells”. In addition, the “IL-1α in transwell media, fold greater” value with IL-1α was found to be 3 fold. The “mean tumor volume by D12” value with MDA-MB-231 [3] (group C: breast cancer cells + MSCs, tumors injected with AMD3100, carboplatin at days 8 and 10) is listed as “significant reduction in tumor volume; also recorded: significantly (p<0.05) reversed the chemoprotective effect of MSCs”. Also, the “proliferation in 12-day (D12) co-culture with MSCs” value with MDA-MB-231 [4] (MDA-MB-231 + MSCs 12 days, optimal AMD3100 during the last 48 hours, effect on the MSC-mediated decrease) is “significantly (p<0.05) reversed”; in the data set with T47D [5] (T47D + MSCs 12 days, optimal AMD3100 during the last 48 hours, effect on the MSC-mediated decrease), “significantly (p<0.05) reversed”. Besides, the “AMD3100 concentration of sensitivity (optimal dose for proliferation)” value in the data set with MDA-MB-231 [4] (MDA-MB-231 + MSCs, 48-hour culture) was 10 ng/mL; in the data set on T47D [5] (T47D + MSCs, 48-hour culture), 100 ng/mL. Moreover, the “proliferation of breast cancer cells in co-cultures with MSCs” value in the data set with MDA-MB-231 [4] (MDA-MB-231 + MSCs, 48-hour culture, AMD3100 10 and 100 ng/ml, compared to breast cancer cells alone (FIG. 1D)) is given as “promoted the proliferation”; in the data set on T47D [5] (T47D + MSCs, 48-hour culture, AMD3100 10 and 100 ng/ml, compared to breast cancer cells alone (FIG. 1E)), “promoted the proliferation”. Further, the “cell proliferation after AMD3100 pre-treatment and chemotherapy without the antagonist” value was “effect on cell proliferation and viability was lost” in the data set with MDA-MB-231 [4] (setting [9]); “effect on cell proliferation and viability was lost” with T47D [5] (setting [10]). For the same compound, the “time at which the increase in proliferation began” value with MDA-MB-231 [4] (MDA-MB-231, optimal AMD3100 dose) was 1 h; with T47D [5] (T47D, optimal AMD3100 dose, relative to MDA-MB-231), “at a later time point”. The “optimum time for AMD3100-mediated proliferation” value with MDA-MB-231 [4] (MDA-MB-231, optimal AMD3100 dose, various times (FIG. 1F)) worked out at 48 h; in the data set on T47D [5] (T47D, optimal AMD3100 dose, various times (FIG. 1G)) it was 48 h. The “proliferation of breast cancer cells alone” value with MDA-MB-231 [4] (MDA-MB-231 cultured alone, 48 hours, AMD3100) is “decrease in cell proliferation”; in the data set with T47D [5] (T47D cultured alone, 48 hours, AMD3100), “decrease in cell proliferation”. Besides, the “relation of proliferation to AMD3100 concentration” value with T47D [5] (T47D, closed circles FIG. 1E, 10 and 100 ng/ml) is reported as “inversely related to AMD3100 concentration”. Further, in the data set with caspase-3, the caspase-3 immunoreactivity result is “increased caspase-3 immunoreactivity”. In addition, the “cell viability with AMD3100” value with T47D [6] and with MDA-MB-231 [7] was “no change in cell viability” each time. The “resistance to carboplatin when chemotherapy was added with AMD3100” value is on record as “resistance was compromised” with T47D [6] (T47D + MSCs 12 days, AMD3100 48 hours then carboplatin with re-added AMD3100 72 hours) and “resistance was compromised” in the data set on MDA-MB-231 [7] (MDA-MB-231 + MSCs 12 days, AMD3100 48 hours then carboplatin with re-added AMD3100 72 hours). Further, the “viability after AMD3100 pre-treatment and chemotherapy without the antagonist” value in the data set with T47D [6] (setting [10]) is “effect on cell proliferation and viability was lost”; in the data set with MDA-MB-231 [7] (setting [9]), “effect on cell proliferation and viability was lost”. At CXCR7, the “action on CXCR7” value is listed as “allosteric agonist of CXCR7”. Moreover, the “naïve breast cancer cell proliferation in transwells” value in data set [8] is “significant (p<0.05) increase”. Besides, the “IL-1β in transwell media, fold greater” value in the data set with IL-1β came out at 5 fold.

For `N.N.O=C([O-])C1(C(=O)[O-])CCC1.[Pt+2]` [carboplatin], the “mean tumor volume by D12” value in the data set on MDA-MB-231 [3] (group A: breast cancer cells injected alone, carboplatin at days 8 and 10) is given as “drastic reduction in mean tumor volume”; with MDA-MB-231 [3] (group B: breast cancer cells co-injected with MSCs, carboplatin at days 8 and 10, effect on the reduction seen in group A) it was “significantly (p<0.05) impeded”. The “response to carboplatin (viable cells / viability) in co-culture with MSCs” value in the data set on T47D [6] (T47D + MSCs 12 days, carboplatin 72 hours, no AMD3100, compared to breast cancer cells alone) is given as “chemoresistant”; in the data set with MDA-MB-231 [7] (MDA-MB-231 + MSCs 12 days, carboplatin 72 hours, no AMD3100, compared to breast cancer cells alone) it was “chemoresistant”.

Consider “IL-1ra: IL-1 receptor antagonist used to block the activity of IL-1 in the mouse tumor model”, for which, in the data set with MDA-MB-231 [3] (group D: group C plus IL-1ra co-treatment, effect on the AMD3100 response), the “mean tumor volume by D12” value is “negated this response”.

These data come from patent publication US20110207814A1, “Combination Therapy for Breast Cancer Treatment” (priority 2009, published 2011).
